9 molecules from ChEMBL document CHEMBL4196095, “Design and synthesis of novel pyrrolo[2,3-a]carbazoles: 7-Chloro-2-oxo-3a-(2'-oxo-2',3'-dihydro-1'H-indol-3'-yl)-2,3,3a,4,5,10-hexahydro-pyrrolo[3,2-a]carbazole-1-carbonitrile as an efficient anticancer agent” (Eur J Med Chem, 2018) can be followed below.

One may read the IC50 as the point on the concentration scale where inhibition reaches its midpoint.

Values after ≈ are worked out from the molar mass of the structure shown. A value given as a limit tells only on which side of the number the result lay.

Assay [1] is described as follows: Antioxidant activity assessed as DPPH radical scavenging activity incubated under dark condition for 30 mins. Type of assay: functional. Background: Loss of DPPH colour is used to gauge radical scavenging.
In assay [2] the test system is HCT-15. Description: Cytotoxicity against human HCT15 cells assessed as reduction in cell viability after 24 hrs by MTT assay. To be noted: HCT-15, 24 h. Type of assay: functional, cell-based. (In general: Tetrazolium assays rely on reduction of a dye to a coloured formazan, in cell work by metabolically active cells.)

`Cc1cccc2c3c([nH]c12)C1=C(C#N)C(=O)NC1(C1C(=O)Nc2ccccc21)CC3` (configuration not stated): the IC50 in assay [1] is 28.918 µg/mL (≈ 73.3 µM); in assay [2], 31.6 µM.
In the same order, the values of `Cc1cccc2c3c([nH]c12)C1=C(C#N)C(=O)NC1(C1c2ccccc2-c2nc4ccccc4nc21)CC3` (configuration not stated) are 33.936 µg/mL (≈ 70.8 µM) and 23.7 µM.
In the same order, the values of `Cc1ccc2[nH]c3c(c2c1)CCC1(C2c4ccccc4-c4nc5ccccc5nc42)NC(=O)C(C#N)=C31` (configuration not stated) are 42.31 µg/mL (≈ 88.2 µM) and 35.9 µM.
For `Cc1cccc2c3c([nH]c12)C1=C(C#N)C(=O)NC1(C1C(=O)c2cccc4cccc1c24)CC3` (configuration not stated), the IC50 in assay [1] was > 100 µg/mL; in assay [2], 46.5 µM.
Regarding `Cc1ccc2[nH]c3c(c2c1)CCC1(C2C(=O)Nc4ccccc42)NC(=O)C(C#N)=C31` (configuration not stated), the half-maximal inhibitory concentration (IC50) turned out to be 41.934 µg/mL (≈ 106 µM) in assay [1] and 47.4 µM in assay [2].
For `Cc1ccc2c3c([nH]c2c1)C1=C(C#N)C(=O)NC1(C1C(=O)Nc2ccc(Cl)cc21)CC3` (configuration not stated), the half-maximal inhibitory concentration (IC50) in assay [1] was determined as 13.931 µg/mL (≈ 32.5 µM); in assay [2], 15.8 µM.
As to `Cc1ccc2c3c([nH]c2c1)C1=C(C#N)C(=O)NC1(C1c2ccccc2-c2nc4cc(C)c(C)cc4nc21)CC3` (configuration not stated), the half-maximal inhibitory concentration (IC50) was 40.037 µg/mL (≈ 78.9 µM) in assay [1] and 50.2 µM in assay [2].
As for `Cc1ccc2c3c([nH]c2c1)C1=C(C#N)C(=O)NC1(C1C(=O)c2cccc4cccc1c24)CC3` (configuration not stated), the IC50 in assay [1] worked out at 28.251 µg/mL (≈ 65.8 µM); in assay [2], 31.6 µM.
As to `O=C1O[C@H]([C@@H](O)CO)C(O)=C1O` [ASCORBIC ACID], the concentration for half-maximal inhibition (IC50) in assay [1] stood at 13.228 µg/mL (≈ 75.1 µM).
